Each structure is given as a SMILES string. Where a SMILES comes first, the peptide text is derived from it. [ ]: non-standard residue; d: D form. ξ: configuration not given here. ξW = NC(Cc1c[nH]c2ccccc12)C(=O)O

Consider `COC(=O)C1=C(C)NC(C)=C(P2(=O)OCCCO2)C1c1ccccc1[N+](=O)[O-]` (centres undefined), for which the logP (as a rule, a log measure of how a compound divides between an organic and an aqueous phase) turned out to be 1.3.

On to `CCc1cccc(Nc2ccncc2S(=O)(=O)NC(=NC#N)NC(C)C)c1`, for which the logP is 2.4. For `Cc1coc2c(C)c3oc(=O)cc(C)c3cc12`, the logP was determined as 3.25. To `Cc1c(C)c2cc(C)c3occc3c2oc1=O` belongs 3.23. Compound `Clc1cc2c(cc1Cl)Oc1c(Cl)c(Cl)cc(Cl)c1O2` yielded a logP of 6.2.

Compound `Brc1ccc(Br)c(N=C2NCCN2)c1` registered a logP of 2.71. `CCCCNc1ccncc1S(=O)(=O)NC(=NC#N)NC(C)C` returned a logP of 1.05. In the case of `COc1ccc(C2Cc3c(Cl)cccc3N(CCN(C)C)C(=O)C2OC(C)=O)cc1` (centres undefined) it was 4.4; in that of `CC(C)CC(NC(=O)C(CC(C)C)NC(=O)C(C)NC(=O)C(C)NC(=O)CN)C(=O)O` (centres undefined) (H-GAALL-OH; configuration not given here), -2.55; in that of `CC(C)CC(NC(=O)C(CC(C)C)NC(=O)C1CCCN1)C(=O)O` (stereo not drawn) (H-Pro-Leu-Leu-OH; configuration not given here), -1.64.

Turning to `NC(Cc1c[nH]c2ccccc12)C(=O)NCC(=O)NCC(=O)O` (stereo not drawn) (H-[ξW]-Gly-Gly-OH), the logP is -2.72. In the case of `O=C(O)CCCCON=C(c1cccc(C(F)(F)F)c1)c1ccncn1` it was 3.14; in that of `C=CC(=O)OCCCCCC`, 3.33; in that of `CC(C)(C)NC(=O)[C@@H]1C[C@@H]2CCCC[C@@H]2CN1C[C@@H](O)[C@H](Cc1ccccc1)NC(=O)[C@H](CC(N)=O)NC(=O)c1ccc2ccccc2n1`, 4.7. Compound `CCC(C)C(N)C(=O)N1CCCC1C(=O)NCC(=O)NC(C(=O)O)C(C)CC` (centres undefined) (H-IPGI-OH; configuration not given here) gave a logP of -1.69. In the case of `CC(C)Oc1cccc2nc(N)nc(N)c12` it was 2.05. The compound `Brc1cc2cccc3ccc4cccc1c4c32` gave a logP of 5.84. For the compound `Cc1cccc2c1OP(=O)(OCC1C=CC(n3cc(C)c(=O)[nH]c3=O)O1)OC2` (centres undefined), the logP came to 0.71. In turn, `c1ccc2c(c1)OCC(Cc1nc3ccccc3[nH]1)O2` (centres undefined) displayed a logP of 3.29. Take `CC(C)CC(NC(=O)C(N)Cc1c[nH]c2ccccc12)C(=O)NC(Cc1ccccc1)C(=O)NC(C)C(=O)NC(C)C(=O)O` (centres undefined) (H-WLFAA-OH; configuration not given here): the logP was -0.32. As to `Cc1c(C)c2cc3ccoc3cc2oc1=O`, the logP amounted to 2.77. The compound `Cc1cc(C)cc(OCC2CN=C(N)O2)c1` (centres undefined) registered a logP of 2.25.

Turning to `CCOc1cccc(COC(=O)C2C(C=C(C)C)C2(C)C)c1` (centres undefined), the logP was 5.87. To `NC(=O)Cc1ccc(O)cc1` belongs -0.09; to `CC(=O)Oc1cc(OC(C)CCCc2ccccc2)cc2c1C1CC(O)CCC1C(C)N2` (centres undefined), 5.7; to `O=C(NC1CCCCC1)NS(=O)(=O)c1cnccc1NC1CCCCC1`, 4.23.

Turning to `Cc1cccc(OCC2CN=C(N)O2)c1` (centres undefined), the logP amounted to 1.75. `Nc1nc(N)c2c(I)cccc2n1` returned a logP of 2.12. On to `Cn1cnc([N+](=O)[O-])c1S(N)(=O)=O`, for which the logP was -0.74.

As for `O=C(O)CCCCON=C(c1cncnc1)c1cccc(C(F)(F)F)c1`, the logP came out at 3.26. Compound `CC(C)CC(N)C(=O)NC(CC(C)C)C(=O)NC(CC(C)C)C(=O)NC(C(=O)O)C(C)C` (centres undefined) (H-LLLV-OH; configuration not given here) came in with a logP of -0.51. On to `CCCC(=O)OCC1OC(n2cc(I)c(=O)[nH]c2=O)CC1O` (centres undefined), for which the logP came out at 0.88. `CC(C)Nc1ncnc2c1ncn2C1OC(CO)C(O)C1O` (centres undefined): the logP stood at 0.48.

Regarding `CCCN(CCC)C1CCc2c(O)cccc2C1` (centres undefined), the logP amounted to 3.58. `CCC(C)(C)c1ccc(OCC2CN=C(N)O2)cc1` (centres undefined) returned a logP of 3.69. To `CCCc1nc(NC)nc(N2CCOCC2)n1` belongs 2.15; to `C=C(C)CC(C)(CCC=C(C)C)OC(C)=O` (centres undefined), 4.36; to `CC(Cl)C(=O)Nc1ccc(C2=NNC(=O)CC2C)cc1` (centres undefined), 1.4.

With `Cc1cc2c(ccc3c(C)c(C)c(=O)oc32)o1`, the logP came out at 3.27.

Values taken from the OPERA property sets (Mansouri et al. 2018).
